# From patent US7235536B2, “Cellulose sulfate and other sulfated polysaccharides to prevent and treat papilloma virus infection and other infections” (Rush Presbyterian-St. Luke's Medical Center, priority 2000, dated 2007)
# Like-named read-outs stand apart in the source and are kept apart here. Marks after values point to notes of the source that are not given here.
# Legend:
# [1] = tested on: Peptostreptococcus asaccharolyticus; experiment: Broth method MIC; assay type: cell-based; conditions: for CS MIC: Broth (study 2)
# HPV-40 = experiment: RT-PCR ELISA for transient infection of human A431 cells, HPV-40; assay type: cell-based, human papilloma virus; conditions: with virus (HPV-40)
# Method: Cellulose sulfate and dextran sulfate were each prepared as a 2 mg/ml solution in 0.9% NaCl and tested for microbicidal activity using the in vitro HPV transient infection assay originally described by Smith and colleagues (Smith, L. H., C. Foster, M. E. Hitchcock, and R. Isseroff. 1993. In vitro HPV-11 infection of human foreskin. J. Invest. Dermatol. 101:292-295) with some modifications (Ludmerer, S. W., W. L. McClements, X. M. Wang, J. C. Ling, K. U. Jansen, and N. D. Christensen. 2000. HPV11 mutant virus-like parties elicit immune responses that neutralize virus and delineate a novel neutralizing domain. Virology 266:237-245). An ELISA-based read-out of Optical Density (OD) values using alkaline phosphatase cleavage of the substrate p-nitrophenyl phosphate was also used to measure HPV infection as described below.
# The RT-PCR assay to detect HPV-40 infection was designed similarly for the detection of HPV-11 infection as described above.
# A modification of the RT-PCR assay that incorporates an ELISA-based read-out (Boehringer-Mannheim) was also included to assess microbicidal activity. Replicate cell cultures of A431 cells were infected with an aliquot of infectious HPV virions as described above. After 4 days of culture, cells were harvested and RNA extracted. RNA was subjected to RT using downstream anti-sense (reverse) primers for HPV-11 or HPV-40 and β-actin (as a control/housekeeping cellular transcript) to initiate cDNA synthesis. The cDNA was processed through 2 sets of 30 cycles of PCR amplification using nested primers: the second set of cycles used digoxygenin (DIG)-dUTP to label the PCR products with DIG. DIG-labeled PCR products were denatured then renatured together with a biotinylated oligonucleotide specific for the targeted PCR product. Biotinylated products were detected in ELISA with plates coated with streptavidin (to capture the biotinylated target PCR product) then anti-DIG antibody and substrate. Labeled PCR products were added directly to ELISA plates, or titrated at 10-fold dilutions in duplicate for each cell culture for each virus dilution.
# The microbicidal activity was assessed either as the detection of ethidium stained PCR products or as an ELISA-based read-out as described above. […] An initial experiment was conducted to test the specificity of the ELISA-based RT-PCR assay using HPV-11 and HPV-40 infection of A431 cells (Table E).
# Staphylococcus aureus = experiment: Microbial challenge of CS gel; assay type: cell-based
# Method: (§1) 6% CS was prepared in water as a translucent gel. Twenty grams of the gel was placed in a plastic screw-cap centrifuge tube. The microbial inoculants were prepared, gently vortexed and 0.1 ml inoculant was aseptically pipetted into the 20.0 gram gel. This procedure was repeated for each microbial organism. The samples were incubated at room temperature (20-25° C.) for 14 days or 28 days. The microbes tested and their theoretical yields can be found in Table F. After 14 or 28 days incubation, dilutions (10^−1, 10^−2, 10^−3) of the gels were made in saline and 1 ml plated onto Sabouraud dextrose (Aspergillus and Candida) or onto tryptic soy (other microbes). The number of organisms that grew after 3-7 days at room temperature were counted.
# (§2) In another study, CS was dissolved in water at the concentrations indicated below. No other ingredients, including preservatives, were added. The gels were challenged with microbes as described above except that the gels were examined for the presence of microbes after 1, 2, 3, 4 and 7 days. The amount of microbes origially inoculated in the gels is also shown below.
# Candida albicans = experiment: Microbial challenge of CS gel; assay type: cell-based
# Method: as §1, §2
# [2] = tested on: Fusobacterium gonidiaformans; experiment: Agar method MIC; assay type: cell-based; conditions: for CS MIC: Agar
# Porphyromonas levii = experiment: Broth method MIC; assay type: cell-based
# [3] = tested on: Prevotella melaminogenica; experiment: Broth method MIC; assay type: cell-based; conditions: for CS MIC: Broth (study 2)
# [4] = tested on: Bacteroides thetaiotaomicron; experiment: Agar method MIC; assay type: cell-based
# [5] = tested on: Peptostreptococcus magnus; experiment: Broth method MIC; assay type: cell-based; conditions: for CS MIC: Broth (study 2)
# [6] = tested on: Peptostreptococcus magnus
substance,measurement,setting,value
sodium cellulose sulfate,growth inhibition,[1]; all strains,inhibited
same,CS MIC,[1]; rma# 11587,10000 µg/mL
same,CS MIC,[1]; rma# 11607,10000 µg/mL
same,"Mean (SD) of O.D. reading for RT-PCR ELISA, HPV-40 probe",HPV-40; 10 μg/ml at viral pretreatment,0.397 (0.050) O.D.
same,"Mean (SD) of O.D. reading for RT-PCR ELISA, HPV-40 probe",HPV-40; 100 μg/ml at viral pretreatment,0.128 (0.008) O.D.
same,"Mean (SD) of O.D. reading for RT-PCR ELISA, HPV-40 probe",HPV-40; 1000 μg/ml at viral pretreatment,0.037 (0.004) O.D.
same,inactivation of Staphylococcus,"Staphylococcus aureus; 0.06% CS gel, slow growth thereafter",initially inactivated most Staphylococcus
same,inactivation of Staphyloccus,Staphylococcus aureus; 6% CS gel,completely inactivated
same,Day 14 CFU/g,"Staphylococcus aureus; 6% CS gel, ATCC 6538, room temperature, Day 14",0 CFU/g
same,Day 28 CFU/g,"Staphylococcus aureus; 6% CS gel, ATCC 6538, room temperature, Day 28",0 CFU/g
same,Staphylococcus aureus CFU,"Staphylococcus aureus; CS 0.06% in water, 24 hours",0.625 CFU × 10^5/ml
same,Staphylococcus aureus CFU,"Staphylococcus aureus; CS 0.06% in water, 48 hours",0.715 CFU × 10^5/ml
same,Staphylococcus aureus CFU,"Staphylococcus aureus; CS 0.06% in water, 72 hours",1.04 CFU × 10^5/ml
same,Staphylococcus aureus CFU,"Staphylococcus aureus; CS 0.06% in water, 96 hours",2.06 CFU × 10^5/ml
same,Staphylococcus aureus CFU,"Staphylococcus aureus; CS 0.06% in water, 7 days",5.815 CFU × 10^5/ml
same,Staphylococcus aureus CFU,"Staphylococcus aureus; CS 0.6% in water, 24 hours",5.17 CFU × 10^5/ml
same,Staphylococcus aureus CFU,"Staphylococcus aureus; CS 0.6% in water, 48 hours",5.53 CFU × 10^5/ml
same,Staphylococcus aureus CFU,"Staphylococcus aureus; CS 0.6% in water, 72 hours",4.82 CFU × 10^5/ml
same,Staphylococcus aureus CFU,"Staphylococcus aureus; CS 0.6% in water, 96 hours",6.41 CFU × 10^5/ml
same,Staphylococcus aureus CFU,"Staphylococcus aureus; CS 0.6% in water, 7 days",3.25 CFU × 10^5/ml
same,Staphylococcus aureus CFU,"Staphylococcus aureus; CS 1.2% in water, 24 hours",2.71 CFU × 10^5/ml
same,Staphylococcus aureus CFU,"Staphylococcus aureus; CS 1.2% in water, 48 hours",4.725 CFU × 10^5/ml
same,Staphylococcus aureus CFU,"Staphylococcus aureus; CS 1.2% in water, 72 hours",2.39 CFU × 10^5/ml
same,Staphylococcus aureus CFU,"Staphylococcus aureus; CS 1.2% in water, 96 hours",3.96 CFU × 10^5/ml
same,Staphylococcus aureus CFU,"Staphylococcus aureus; CS 1.2% in water, 7 days",3.55 CFU × 10^5/ml
same,Staphylococcus aureus CFU,"Staphylococcus aureus; CS 6% in water, 24 hours",0 CFU × 10^5/ml
same,Staphylococcus aureus CFU,"Staphylococcus aureus; CS 6% in water, 48 hours",0.005 CFU × 10^5/ml
same,Staphylococcus aureus CFU,"Staphylococcus aureus; CS 6% in water, 72 hours",0 CFU × 10^5/ml
same,Staphylococcus aureus CFU,"Staphylococcus aureus; CS 6% in water, 96 hours",0 CFU × 10^5/ml
same,Staphylococcus aureus CFU,"Staphylococcus aureus; CS 6% in water, 7 days",0 CFU × 10^5/ml
same,inactivation of Staphyloccus,Staphylococcus aureus; lower CS concentrations,not inactivated but growth was prevented
same,Day 14 CFU/g,"Candida albicans; 6% CS gel, ATCC 10231, room temperature, Day 14",0 CFU/g
same,Day 28 CFU/g,"Candida albicans; 6% CS gel, ATCC 10231, room temperature, Day 28",0 CFU/g
same,Candida albicans CFU,"Candida albicans; CS 0.06% in water, 24 hours",0 CFU × 10^5/ml
same,Candida albicans CFU,"Candida albicans; CS 0.06% in water, 48 hours",0 CFU × 10^5/ml
same,Candida albicans CFU,"Candida albicans; CS 0.06% in water, 72 hours",0 CFU × 10^5/ml
same,Candida albicans CFU,"Candida albicans; CS 0.06% in water, 96 hours",0 CFU × 10^5/ml
same,Candida albicans CFU,"Candida albicans; CS 0.06% in water, 7 days",0 CFU × 10^5/ml
same,Candida albicans CFU,"Candida albicans; CS 0.6% in water, 24 hours",0 CFU × 10^5/ml
same,Candida albicans CFU,"Candida albicans; CS 0.6% in water, 48 hours",0 CFU × 10^5/ml
same,Candida albicans CFU,"Candida albicans; CS 0.6% in water, 72 hours",0.62 CFU × 10^5/ml
same,Candida albicans CFU,"Candida albicans; CS 0.6% in water, 96 hours",0.655 CFU × 10^5/ml
same,Candida albicans CFU,"Candida albicans; CS 0.6% in water, 7 days",0.535 CFU × 10^5/ml
same,Candida albicans CFU,"Candida albicans; CS 1.2% in water, 24 hours",0 CFU × 10^5/ml
same,Candida albicans CFU,"Candida albicans; CS 1.2% in water, 48 hours",0 CFU × 10^5/ml
same,Candida albicans CFU,"Candida albicans; CS 1.2% in water, 72 hours",0 CFU × 10^5/ml
same,Candida albicans CFU,"Candida albicans; CS 1.2% in water, 96 hours",0 CFU × 10^5/ml
same,Candida albicans CFU,"Candida albicans; CS 1.2% in water, 7 days",0 CFU × 10^5/ml
same,Candida albicans CFU,"Candida albicans; CS 6% in water, 24 hours",0 CFU × 10^5/ml
same,Candida albicans CFU,"Candida albicans; CS 6% in water, 48 hours",0 CFU × 10^5/ml
same,Candida albicans CFU,"Candida albicans; CS 6% in water, 72 hours",0 CFU × 10^5/ml
same,Candida albicans CFU,"Candida albicans; CS 6% in water, 96 hours",0 CFU × 10^5/ml
same,Candida albicans CFU,"Candida albicans; CS 6% in water, 7 days",0 CFU × 10^5/ml
same,inactivation of Candida,Candida albicans; CS gel 1.2 and 6%,Complete inactivation
same,inactivation of Candida,Candida albicans; CS gel in as low a concentration as 0.6%,inactivated
same,lowest concentration of compound that inhibited growth,"[2]; Example 8, agar, 48 hours anaerobic, highest tested 625 μg/ml",156 µg/mL
same,CS MIC,[2]; rma# 11423,>625 µg/mL
same,CS MIC,[2]; rma# 11653,156 µg/mL
same,growth inhibition,Porphyromonas levii; both strains,inhibited
same,CS MIC,"Porphyromonas levii; rma# 11425, Broth (study 1)",600 µg/mL
same,CS MIC,"Porphyromonas levii; rma# 11425, Broth (study 2)",600 µg/mL
same,CS MIC,"Porphyromonas levii; rma# 11601, Broth (study 1)",300 µg/mL
same,CS MIC,"Porphyromonas levii; rma# 11601, Broth (study 2)",300 µg/mL
same,growth inhibition,[3]; at the concentrations tested,Neither one of the strains of Prevotella melaminogenica were inhibited
same,CS MIC,[3]; rma# 5657,NI (not inhibited by 10 mg/ml (the highest concentration tested))
same,CS MIC,[3]; rma# 9052,NI (not inhibited by 10 mg/ml (the highest concentration tested))
same,CS MIC,[4]; ATCC (first listed),>625 µg/mL
same,CS MIC,[4]; rma# 11604,>625 µg/mL
same,CS MIC,[4]; rma# 11651,>625 µg/mL
same,growth inhibition,[5]; all strains,inhibited
same,CS MIC,[5]; rma# 11598,5000 µg/mL
same,CS MIC,[5]; rma# 11658,5000 µg/mL
same,CS MIC,[6],>0.625** mg/ml
